Data taken from article PMC3466204 (PLoS ONE, 2012).
Values joined by “and” are separate entries in the source; they are usually repeats but may differ in a detail not shown here. Equal values may be shown once. Ends that are not written are not given here.

Key:
C. sakazakii DPC 6440 [1] = experiment: Broth MIC, Gram negative; format: cell-based, Cronobacter sakazakii; conditions: cells washed in 10 mM SPB pH 7.4, 2×10^5 CFU/mL, 2 h RT with peptide, then double strength LB, RT overnight, mean of triplicate assays
Procedure: (§1) Minimum inhibitory concentration determinations for Gram negative strains were carried out in triplicate in 96 well microtitre plates. Briefly, bacteria (E. coli, C. sakazakii and Salmonella) grown to mid-logarithmic phase were harvested by centrifugation, washed with 10 mM SPB at pH 7.4, and diluted to 2×10^5 colony-forming units (CFU)/mL in SPB. Nisin and nisin derivative peptides were resuspended in sterile HPLC water and 50 µL aliquots were added to wells containing 50 µL of 2×10^5 CFU of bacteria. Plates were incubated at RT for two hours with agitation. Double strength Luria–Bertani (LB) broth (100 µL) was added and the plates were incubated at RT overnight, the MIC was taken as the lowest concentration at which growth was inhibited.

[2] = system: Salmonella enterica serovar Typhimurium UK1; experiment: Agarose gel diffusion assay, purified peptide; format: cell-based; conditions: purified peptide 60 µM; for Zone of inhibition, agarose gel diffusion: Salmonella Typhimurium UK1, mean of triplicate assays; for Zone as % wt: Salmonella Typhimurium UK1, relative to nisin A
Procedure: (§2) Agarose-based deferred antagonism assays were carried out as follows: GM17/LB (0.03%) underlay was prepared with 10 mM sodium phosphate buffer (SPB) at pH 7.4 to which was added agarose (1% w/v agarose), autoclaved and cooled to 50°C. Bacteria grown to mid-logarithmic phase were harvested by centrifugation and washed with 10 mM SPB at pH 7.4. Bacteria were then added to 15 mls cooled underlay medium to reach a concentration of 2×10^7 colony-forming units (CFU)/mL. The inoculated medium was rapidly transferred into sterile Petri plates, allowed to solidify and dried. Wells (4.6 mm in diameter) were then made in the seeded plates. 10 µl volumes of cell-free supernatant from overnight nisin derivative producing cultures or resuspended purified peptides were then added to the wells and the plates incubated at 30°C (L. lactis) or 37°C (Gram positive strains) or RT (Gram negative strains) for 3 hours. Polymyxin B (Sigma Aldrich) was used at a concentration of 20 µg/ml. The plates were then overlaid with 15 mls of autoclaved double strength GM17 (L. lactis) or LB (Gram negatives) agarose (1% w/v agarose) overlay medium precooled to 50°C. The plates were then incubated overnight at the relevant temperature.

E. coli 0157-H7 [3] = experiment: Agarose gel diffusion assay, purified peptide; format: cell-based; conditions: purified peptide 60 µM; for Zone of inhibition, agarose gel diffusion: E. coli 0157-H7, mean of triplicate assays; for Zone as % wt: E. coli 0157-H7, relative to nisin A
Procedure: as §2

E. durans 5133 = experiment: Broth MIC, Gram positive; format: cell-based, Enterococcus durans; conditions: broth microtitre, BSA pre-treated plates, 10^5 cfu ml^−1, 2-fold dilutions from 2.5 µM, 16 h 37°C, purified peptide, mean of triplicate assays
Procedure: (§3) Minimum inhibitory concentration determinations for Gram positive organisms were carried out in triplicate in microtitre plates (Sarstedt). 96 well microtitre plates were pre-treated with bovine serum albumin (BSA) prior to addition of the peptides. Briefly, to each well of the microtitre plate 200 µL of phosphate buffered saline (PBS) containing 1% (w/v) bovine serum albumin (PBS/BSA) was added and incubated at 37°C for 30 min. The wells were washed with 200 µL PBS and allowed to dry. Target strains were grown overnight in the appropriate conditions and medium, subcultured into fresh broth and allowed to grow to an OD600 of ∼0.5, diluted to a final concentration of 10^5 cfu ml^−1 in a volume of 0.2 ml. Wild type nisin and nisin mutant peptides were adjusted to a 10 µM (S. mitis, B. cereus), 7.5 µM (L. monocytogenes), 5 µM (hVISA) 2.5 µM (MRSA, E. durans), or 500 nM (L. lactis strains) starting concentration and 2-fold serial dilutions of each peptide were added to the target strain.

B. cereus DPC 6088 = experiment: Broth MIC, Gram positive; format: cell-based, Bacillus cereus; conditions: broth microtitre, BSA pre-treated plates, 10^5 cfu ml^−1, 2-fold dilutions from 10 µM, 16 h 37°C, purified peptide, mean of triplicate assays
Procedure: as §3

B. cereus DPC 6089 = experiment: Broth MIC, Gram positive; format: cell-based, Bacillus cereus; conditions: broth microtitre, BSA pre-treated plates, 10^5 cfu ml^−1, 2-fold dilutions from 10 µM, 16 h 37°C, purified peptide, mean of triplicate assays
Procedure: as §3

[4] = system: Salmonella enterica serovar Typhimurium UK1; experiment: Broth MIC, Gram negative; format: cell-based; conditions: cells washed in 10 mM SPB pH 7.4, 2×10^5 CFU/mL, 2 h RT with peptide, then double strength LB, RT overnight, mean of triplicate assays
Procedure: as §1

E. coli 0157-H7 [5] = experiment: Broth MIC, Gram negative; format: cell-based; conditions: cells washed in 10 mM SPB pH 7.4, 2×10^5 CFU/mL, 2 h RT with peptide, then double strength LB, RT overnight, mean of triplicate assays
Procedure: as §1

L. lactis HP = experiment: Broth MIC, Gram positive; format: cell-based; conditions: broth microtitre, BSA pre-treated plates, 10^5 cfu ml^−1, 2-fold dilutions from 500 nM, 16 h, purified peptide, mean of triplicate assays
Procedure: as §3

S. aureus RF122 = experiment: Broth MIC, Gram positive; format: cell-based; conditions: broth microtitre, BSA pre-treated plates, 10^5 cfu ml^−1, 2-fold dilutions, 16 h 37°C, purified peptide, mean of triplicate assays
Procedure: as §3

C. sakazakii DPC 6440 [6] = experiment: Agarose gel diffusion assay, purified peptide; format: cell-based, Cronobacter sakazakii; conditions: purified peptide 60 µM; for Zone of inhibition, agarose gel diffusion: C. sakazakii DPC 6440, mean of triplicate assays; for Zone as % wt: C. sakazakii DPC 6440, relative to nisin A
Procedure: as §2

S. mitis UCC5000 = experiment: Broth MIC, Gram positive; format: cell-based, Streptococcus mitis; conditions: broth microtitre, BSA pre-treated plates, 10^5 cfu ml^−1, 2-fold dilutions from 10 µM, 16 h 37°C, purified peptide, mean of triplicate assays
Procedure: as §3

Lactococcus lactis HP = experiment: Agarose-based assay of cell-free supernatants of S29X producing strains; conditions: for Zone Diameter (mm): agarose (1%) GM17 assay, 10 µl cell-free supernatant of overnight producing culture in 4.6 mm wells, L. lactis HP, 30°C; for % difference (zone relative to wild type): agarose assay of supernatants against L. lactis HP, wild type serine = 100
Procedure: as §2

L. lactis MG1363 = experiment: Broth MIC, Gram positive; format: cell-based; conditions: broth microtitre, BSA pre-treated plates, 10^5 cfu ml^−1, 2-fold dilutions from 500 nM, 16 h, purified peptide, mean of triplicate assays
Procedure: as §3

[7] = system: ST 530 (Methicillin resistant S. aureus); experiment: Broth MIC, Gram positive; format: cell-based; conditions: broth microtitre, BSA pre-treated plates, 10^5 cfu ml^−1, 2-fold dilutions from 2.5 µM, 16 h 37°C, purified peptide, mean of triplicate assays
Procedure: as §3

[8] = system: ST 528 (Methicillin resistant S. aureus); experiment: Broth MIC, Gram positive; format: cell-based; conditions: broth microtitre, BSA pre-treated plates, 10^5 cfu ml^−1, 2-fold dilutions from 2.5 µM, 16 h 37°C, purified peptide, mean of triplicate assays
Procedure: as §3

L. monocytogenes LO28 = experiment: Broth MIC, Gram positive; format: cell-based; conditions: broth microtitre, BSA pre-treated plates, 10^5 cfu ml^−1, 2-fold dilutions from 7.5 µM, 16 h 37°C, purified peptide, mean of triplicate assays
Procedure: as §3

L. monocytogenes 10403S = experiment: Broth MIC, Gram positive; format: cell-based; conditions: broth microtitre, BSA pre-treated plates, 10^5 cfu ml^−1, 2-fold dilutions from 7.5 µM, 16 h 37°C, purified peptide, mean of triplicate assays
Procedure: as §3

[9] = system: hVISA 32679 (heterogenous Vancomycin-intermediate S. aureus); experiment: Broth MIC, Gram positive; format: cell-based; conditions: broth microtitre, BSA pre-treated plates, 10^5 cfu ml^−1, 2-fold dilutions from 5 µM, 16 h 37°C, purified peptide, mean of triplicate assays
Procedure: as §3

Substance	MIC (C. sakazakii DPC 6440 [1])	Zone of inhibition, agarose gel diffusion [2] [mm]	Zone as % wt [2] [% wt]	Zone of inhibition, agarose gel diffusion (E. coli 0157-H7 [3]) [mm]	Zone as % wt (E. coli 0157-H7 [3]) [% wt]	MIC (E. durans 5133)	MIC (B. cereus DPC 6088)	MIC (B. cereus DPC 6089)	MIC [4]	MIC (E. coli 0157-H7 [5])	MIC (L. lactis HP)	MIC (S. aureus RF122)	Zone of inhibition, agarose gel diffusion (C. sakazakii DPC 6440 [6]) [mm]	Zone as % wt (C. sakazakii DPC 6440 [6]) [% wt]	MIC (S. mitis UCC5000)	Zone Diameter (mm) (Lactococcus lactis HP)	% difference (zone relative to wild type) (Lactococcus lactis HP)	MIC (L. lactis MG1363)	MIC [7]	MIC [8]	other results
M21K: M21K hinge derivative of nisin A, generated and purified for comparison (ITSISLCTPGCKTGALMGCNKKTATCHCSIHVSK; thioether (positions not given here); not fully specified (residues 2, 5, 33, bridges); UniProt P13068 24-57, looked up, variant M21K)	6.28 mg/L and 1.875 µM	10.75±0.12	109	10.80±0.01	110	0.52 mg/L and 0.156 µM	16.76 mg/L and 5.0 µM	16.76 mg/L and 5.0 µM	50.28 mg/L and 15 µM	25.14 mg/L and 7.5 µM	0.2 mg/L and 0.062 µM	1.04 mg/L and 0.312 µM	10.51±0.10	108	8.38 mg/L and 2.5 µM						
S29D: bioengineered nisin A derivative, serine 29 replaced by aspartic acid (ITSISLCTPGCKTGALMGCNMKTATCHCDIHVSK; thioether (positions not given here); not fully specified (residues 2, 5, 33, bridges); UniProt P13068 24-57, looked up, variant S29D)	6.28 mg/L and 1.875 µM	8.22±0.16	83	8.27±0.08	84	0.52 mg/L and 0.156 µM	16.76 mg/L and 5.0 µM	8.38 mg/L and 2.5 µM	> 100 mg/L and > 30 µM	> 100 mg/L and > 30 µM	0.05 mg/L and 0.015 µM	4.19 mg/L and 1.25 µM	10.10±0.19	103	16.76 mg/L and 5.0 µM	20.3±0.8	133 (0.006) %	0.4 mg/L and 0.125 µM	0.52 mg/L and 0.156 µM	0.26 mg/L and 0.078 µM	MIC (L. monocytogenes LO28): 12.57 mg/L and 3.75 µM; MIC (L. monocytogenes 10403S): 12.57 mg/L and 3.75 µM; MIC [9]: 4.19 mg/L and 1.25 µM
S29E: bioengineered nisin A derivative, serine 29 replaced by glutamic acid (ITSISLCTPGCKTGALMGCNMKTATCHCEIHVSK; not fully specified (residues 2, 5, 33, bridges); cysteine pairing not given here; UniProt P13068 24-57, looked up, variant S29E)	12.57 mg/L and 3.75 µM	10.77±0.07	109	10.54±0.19	107	0.52 mg/L and 0.156 µM	4.19 mg/L and 1.25 µM	4.19 mg/L and 1.25 µM	50.28 mg/L and 15 µM	25.14 mg/L and 7.5 µM	0.05 mg/L and 0.015 µM	2 mg/L and 0.625 µM	7.98±0.29	81	4.19 mg/L	18.6±0.3	122 (0.0004) %	0.8 mg/L and 0.250 µM	0.52 mg/L	0.52 mg/L	MIC (L. monocytogenes LO28): 6.28 mg/L and 1.875 µM; MIC (L. monocytogenes 10403S): 12.57 mg/L and 3.75 µM; MIC [9]: 4.19 mg/L and 1.25 µM
